The values below come from article PMC8595825 (Journal of medicinal chemistry, 2021).

In this assay the test system is M. tuberculosis H37Rv. The assay is classed as cell-based, Mycobacterium tuberculosis H37Rv. The following applies: 1× to 8× MIC90, 8 weeks, 3 × 10^8 cells.

As for `CCCCCCCCn1c2c([n+](CCCC)c1C)C(=O)c1ccccc1C2=O.[Br-]` [compound 32], the spontaneous mutation frequency was < 3 × 10^−9 /CFU.

In the case of `CCCCCCCn1c2c([n+](CCCCC)c1C)C(=O)c1ccccc1C2=O.[Br-]` [compound 48], the spontaneous mutation frequency is listed as < 3 × 10^−9 /CFU.
